Laboratory results: US20260028326A1, “COMPOUND BASED ON ISOINDOLINE-SUBSTITUTED GLUTARIMIDE BACKBONE AND USE THEREOF” (GLUETACS THERAPEUTICS (SHANGHAI) CO., LTD., priority 2022, published 2026)
Each block holds one molecule with its values, some of them ahead of it.

What was measured:
[1] = test system: Mino cells; assay: Tumor cell proliferation IC50 (CCK-8), Mino; conditions: Homo sapiens, 72 h, read-out: IC50 for inhibiting the proliferation of tumor cells, Mino;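 further: cell viability assessed with CCK-8 reagent after compound exposure, IC50 derived from plotted growth inhibition curves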
[2] = molecular target: GSPT1 protein (Homo sapiens (Human), UniProt P15170+Q96SW2); assay: Western-blot assay of substrate protein degradation in hPBMC, GSPT1; assay type: cell-based; conditions: hPBMC cells, compound 500 nM, 24 hours, Western blot
[3] = molecular target: IKZF3 protein (Homo sapiens (Human), UniProt Q96SW2+Q9UKT9); assay: Western-blot assay of substrate protein degradation in hPBMC, IKZF3; assay type: cell-based; conditions: hPBMC cells, compound 500 nM, 24 hours, Western blot
[4] = molecular target: human Cereblon WT GST-tagged protein (Homo sapiens (Human), UniProt Q96SW2); assay: CRBN-binding affinity, HTRF (CEREBLON BINDING kit)
Outline: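 HTRF competition readout: compounds compete with a thalidomide-Re conjugate for GST-tagged wild-type human CRBN detected via Eu-labelled anti-GST antibody. Inhibition rate derived relative to protein-free blank wells.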

[5] = test system: MM.1S cells; assay: Tumor cell proliferation IC50 (CCK-8), MM.1S; conditions: Homo sapiens, MM1.S, 72 h, read-out: IC50 for inhibiting the proliferation of tumor cells, MM.1S;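 further: viability of cultured cells read by CCK-8 reagent after compound exposure, growth inhibition curves fitted to derive IC50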
Procedure: (§1) The tumor cells used herein were cultured in a cell culture medium listed in table A at 37° C. in an incubator with 5% CO2.
(§2) After the cells were treated with the compounds of the present disclosure for a period of time, the cell viability detection reagent was added to the culture medium for cell viability assessment according to the instructions provided with the CCK-8 kit. […] The growth inhibition of the compounds of the present disclosure on cells was plotted by Prism Graphpad software, and the IC50 values of the compounds of the present disclosure were calculated therefrom.

[6] = molecular target: IKZF1 protein (Homo sapiens (Human), UniProt Q13422+Q96SW2); assay: Western-blot assay of substrate protein degradation in hPBMC, IKZF1; assay type: cell-based; conditions: hPBMC cells, compound 500 nM, 24 hours, Western blot
[7] = test system: Daudi cells; assay: Tumor cell proliferation IC50 (CCK-8), Daudi; conditions: Homo sapiens, read-out: IC50 for inhibiting the proliferation of tumor cells, Daudi;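 further: cell viability read with CCK-8 reagent after compound exposure of Daudi cells, IC50 derived from plotted growth inhibition curves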
Procedure: as §1, §2

[8] = test system: CCRF-CEM cells; assay: Tumor cell proliferation IC50 (CCK-8), CCRF-CEM; conditions: Homo sapiens, 96 h, read-out: IC50 for inhibiting the proliferation of tumor cells, CCRF-CEM;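 further: cell viability measured with CCK-8 reagent after compound treatment, IC50 taken from plotted growth inhibition curves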
Procedure: as §1, §2

Chain of IKZF3 protein (Q9UKT9 whole entry): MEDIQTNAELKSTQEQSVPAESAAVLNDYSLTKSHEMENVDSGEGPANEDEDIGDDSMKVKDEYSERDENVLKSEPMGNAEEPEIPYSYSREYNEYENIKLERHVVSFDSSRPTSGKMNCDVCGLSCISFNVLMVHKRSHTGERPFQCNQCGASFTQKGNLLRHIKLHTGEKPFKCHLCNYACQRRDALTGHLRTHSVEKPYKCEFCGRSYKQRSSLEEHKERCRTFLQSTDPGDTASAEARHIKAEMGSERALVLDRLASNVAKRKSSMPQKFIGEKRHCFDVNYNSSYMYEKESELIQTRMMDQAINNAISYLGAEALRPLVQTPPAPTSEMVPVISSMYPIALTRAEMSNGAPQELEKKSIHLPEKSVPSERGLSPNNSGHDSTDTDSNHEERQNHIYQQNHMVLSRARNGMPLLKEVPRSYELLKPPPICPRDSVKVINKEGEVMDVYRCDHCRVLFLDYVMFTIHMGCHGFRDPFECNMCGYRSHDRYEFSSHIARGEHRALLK
Chain of IKZF3 protein (Q96SW2 whole entry): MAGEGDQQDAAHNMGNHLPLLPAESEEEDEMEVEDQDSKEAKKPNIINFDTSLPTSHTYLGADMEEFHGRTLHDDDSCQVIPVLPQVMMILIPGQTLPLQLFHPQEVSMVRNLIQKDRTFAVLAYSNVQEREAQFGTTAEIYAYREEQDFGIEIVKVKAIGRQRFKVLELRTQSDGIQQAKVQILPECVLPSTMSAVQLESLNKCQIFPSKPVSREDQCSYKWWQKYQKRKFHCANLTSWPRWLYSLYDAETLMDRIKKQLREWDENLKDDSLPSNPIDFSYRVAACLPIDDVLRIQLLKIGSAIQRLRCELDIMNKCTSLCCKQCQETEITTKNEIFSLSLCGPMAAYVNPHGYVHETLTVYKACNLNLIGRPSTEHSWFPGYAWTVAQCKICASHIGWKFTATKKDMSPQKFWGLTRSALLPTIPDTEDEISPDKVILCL
Chain of IKZF3 protein (Q16531 whole entry partner): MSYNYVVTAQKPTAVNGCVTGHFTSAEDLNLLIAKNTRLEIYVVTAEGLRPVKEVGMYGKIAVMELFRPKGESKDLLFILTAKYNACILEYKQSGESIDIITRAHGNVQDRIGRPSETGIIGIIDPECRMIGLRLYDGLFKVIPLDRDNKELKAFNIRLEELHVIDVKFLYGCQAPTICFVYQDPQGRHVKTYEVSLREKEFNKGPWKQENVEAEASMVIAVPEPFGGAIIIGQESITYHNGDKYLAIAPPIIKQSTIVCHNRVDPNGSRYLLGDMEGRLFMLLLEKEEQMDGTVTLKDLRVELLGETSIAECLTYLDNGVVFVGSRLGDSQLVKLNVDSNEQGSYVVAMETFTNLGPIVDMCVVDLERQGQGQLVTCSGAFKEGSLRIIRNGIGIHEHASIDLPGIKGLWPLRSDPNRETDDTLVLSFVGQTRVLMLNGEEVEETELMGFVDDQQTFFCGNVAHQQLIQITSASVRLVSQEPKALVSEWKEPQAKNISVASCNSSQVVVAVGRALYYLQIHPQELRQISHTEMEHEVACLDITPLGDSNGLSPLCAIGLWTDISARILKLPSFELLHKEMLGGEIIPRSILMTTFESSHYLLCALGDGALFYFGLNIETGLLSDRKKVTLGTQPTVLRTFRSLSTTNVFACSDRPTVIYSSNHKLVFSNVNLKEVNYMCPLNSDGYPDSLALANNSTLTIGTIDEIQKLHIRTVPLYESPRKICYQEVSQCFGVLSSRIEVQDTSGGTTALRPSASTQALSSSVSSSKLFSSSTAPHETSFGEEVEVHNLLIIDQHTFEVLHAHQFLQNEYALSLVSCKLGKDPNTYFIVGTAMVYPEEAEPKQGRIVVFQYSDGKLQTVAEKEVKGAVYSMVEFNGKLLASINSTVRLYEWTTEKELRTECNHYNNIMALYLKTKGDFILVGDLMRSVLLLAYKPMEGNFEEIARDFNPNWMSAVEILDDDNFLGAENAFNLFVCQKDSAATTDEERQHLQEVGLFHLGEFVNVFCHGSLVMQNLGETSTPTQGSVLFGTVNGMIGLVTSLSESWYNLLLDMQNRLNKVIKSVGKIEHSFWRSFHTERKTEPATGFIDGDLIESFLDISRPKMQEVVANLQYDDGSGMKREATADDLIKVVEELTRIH
Chain of human Cereblon WT GST-tagged protein (Q96SW2 whole entry): as the sequence (Q96SW2 whole entry) above
Chain of IKZF1 protein (Q13422 whole entry): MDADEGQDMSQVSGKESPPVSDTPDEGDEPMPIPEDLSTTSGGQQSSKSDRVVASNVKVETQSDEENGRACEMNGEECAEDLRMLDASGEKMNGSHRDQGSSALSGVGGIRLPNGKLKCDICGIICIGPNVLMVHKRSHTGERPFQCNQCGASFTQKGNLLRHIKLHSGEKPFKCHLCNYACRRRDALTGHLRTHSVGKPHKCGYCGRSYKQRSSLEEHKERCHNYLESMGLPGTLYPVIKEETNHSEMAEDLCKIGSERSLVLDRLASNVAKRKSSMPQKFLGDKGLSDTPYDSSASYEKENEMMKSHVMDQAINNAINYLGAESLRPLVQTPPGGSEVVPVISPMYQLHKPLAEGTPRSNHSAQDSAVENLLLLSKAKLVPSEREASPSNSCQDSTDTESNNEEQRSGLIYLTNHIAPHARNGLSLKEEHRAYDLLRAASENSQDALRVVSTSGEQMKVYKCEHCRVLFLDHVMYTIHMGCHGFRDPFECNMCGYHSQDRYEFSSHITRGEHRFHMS
Chain of IKZF1 protein (Q96SW2 whole entry): as the sequence (Q96SW2 whole entry) above
Chain of IKZF1 protein (Q16531 whole entry partner): as the sequence (Q16531 whole entry partner) above
Chain of GSPT1 protein (P15170 whole entry): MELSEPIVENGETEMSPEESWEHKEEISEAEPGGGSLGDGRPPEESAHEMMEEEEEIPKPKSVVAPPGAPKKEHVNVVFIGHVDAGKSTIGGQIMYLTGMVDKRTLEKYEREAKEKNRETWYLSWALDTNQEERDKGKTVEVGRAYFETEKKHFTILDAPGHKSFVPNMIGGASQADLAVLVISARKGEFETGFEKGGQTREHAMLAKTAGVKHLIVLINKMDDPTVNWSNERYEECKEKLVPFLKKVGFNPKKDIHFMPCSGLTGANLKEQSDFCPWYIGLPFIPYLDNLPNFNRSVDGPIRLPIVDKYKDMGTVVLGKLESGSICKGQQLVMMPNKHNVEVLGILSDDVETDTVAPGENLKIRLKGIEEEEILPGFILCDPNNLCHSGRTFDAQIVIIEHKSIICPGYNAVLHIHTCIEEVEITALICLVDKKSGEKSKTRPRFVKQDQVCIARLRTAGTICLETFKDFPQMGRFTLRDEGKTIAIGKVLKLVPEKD
Chain of GSPT1 protein (Q96SW2 whole entry): as the sequence (Q96SW2 whole entry) above
Chain of GSPT1 protein (Q16531 whole entry partner): as the sequence (Q16531 whole entry partner) above

IC50 [1]: 50 to 100 nM | IC50 [4]: 1670 nM | IC50 [5]: 100 to 500 nM | IC50 [7]: 100 to 500 nM
Structure (SMILES): O=C1CCC(N2Cc3cc(CN4CCN(Cc5ccc(-c6ccc(Cl)cc6)s5)CC4)ccc3C2=O)C(=O)N1 (stereo not shown) [GT-05625, 3-(5-((4-((5-(4-chlorophenyl)thiophen-2-yl)methyl)piperazin-1-yl)methyl)-1-oxoisoindolin-2-yl)piperidine-2,6-dione]
residual substrate protein level, GSPT1 [2]: B (B represents a residual substrate protein level of >50%) | residual substrate protein level, IKZF3 [3]: B (B represents a residual substrate protein level of >50%) | residual substrate protein level, IKZF1 [6]: B (B represents a residual substrate protein level of >50%)

IC50 [1]: < 5 nM | IC50 [4]: 760 nM | IC50 [7]: 100 to 500 nM
Structure (SMILES): O=C1CCC(N2Cc3cc(CN4CCN(Cc5ccc(-c6ccncc6)nc5)CC4)ccc3C2=O)C(=O)N1 (stereo not shown) [GT-05633, 3-(5-((4-([2,4′-bipyridin]-5-ylmethyl)piperazin-1-yl)methyl)-1-oxoisoindolin-2-yl)piperidine-2,6-dione]
residual substrate protein level, GSPT1 [2]: B (B represents a residual substrate protein level of >50%) | residual substrate protein level, IKZF3 [3]: A (A represents a residual substrate protein level of <50%) | residual substrate protein level, IKZF1 [6]: A (A represents a residual substrate protein level of <50%)

IC50 [1]: 10 to 50 nM | IC50 [4]: 530 nM | IC50 [5]: 5 to 10 nM | IC50 [7]: 100 to 500 nM
Structure (SMILES): O=C1CCC(N2Cc3cc(CN4CCN(Cc5cnccc5-c5ccc(Cl)cc5)CC4)ccc3C2=O)C(=O)N1 (stereo not shown) [GT-05703, 3-(5-((4-((4-(4-chlorophenyl)pyridin-3-yl)methyl)piperazin-1-yl)methyl)-1-oxoisoindolin-2-yl)piperidine-2,6-dione]
residual substrate protein level, GSPT1 [2]: B (B represents a residual substrate protein level of >50%) | residual substrate protein level, IKZF3 [3]: A (A represents a residual substrate protein level of <50%) | residual substrate protein level, IKZF1 [6]: A (A represents a residual substrate protein level of <50%)

IC50 [1]: < 5 nM | IC50 [4]: 720 nM | IC50 [5]: 100 to 500 nM | IC50 [7]: 10 to 50 nM
Structure (SMILES): O=C1CCC(N2Cc3cc(CN4CCN(Cc5ccc(-c6ccc(Cl)cc6)nc5)CC4)ccc3C2=O)C(=O)N1 (stereo not shown) [GT-05632, 3-(5-((4-((6-(4-chlorophenyl)pyridin-3-yl)methyl)piperazin-1-yl)methyl)-1-oxoisoindolin-2-yl)piperidine-2,6-dione]

More lines, now with the values behind:

Structure (SMILES): CC1(C)CCC(CN2CCN(Cc3ccc4c(c3)CN(C3CCC(=O)NC3=O)C4=O)CC2)=C(c2cncs2)C1 (stereo not shown) [GT-05791, 3-(5-((4-((4,4-dimethyl-2-(thiazol-5-yl)cyclohex-1-en-1-yl)methyl)piperazin-1-yl)methyl)-1-oxoisoindolin-2-yl)piperidine-2,6-dione]
IC50 [1]: 10 to 50 nM | residual substrate protein level, GSPT1 [2]: B (B represents a residual substrate protein level of >50%) | residual substrate protein level, IKZF3 [3]: A (A represents a residual substrate protein level of <50%) | IC50 [4]: 730 nM | IC50 [5]: 10 to 50 nM | residual substrate protein level, IKZF1 [6]: A (A represents a residual substrate protein level of <50%) | IC50 [7]: 500 to 1000 nM

Structure (SMILES): O=C1CCC(N2Cc3cc(CN4CCN(Cc5ccc(-c6ccco6)cc5)CC4)ccc3C2=O)C(=O)N1 (stereo not shown) [GT-05693, 3-(5-((4-(4-(furan-2-yl)benzyl)piperazin-1-yl)methyl)-1-oxoisoindolin-2-yl)piperidine-2,6-dione]
IC50 [1]: 10 to 50 nM | residual substrate protein level, GSPT1 [2]: B (B represents a residual substrate protein level of >50%) | residual substrate protein level, IKZF3 [3]: A (A represents a residual substrate protein level of <50%) | IC50 [4]: 310 nM | IC50 [5]: 100 to 500 nM | residual substrate protein level, IKZF1 [6]: B (B represents a residual substrate protein level of >50%) | IC50 [7]: 500 to 1000 nM

Structure (SMILES): O=C1CCC(N2Cc3cc(CN4CCN(Cc5ccc(-c6ccco6)s5)CC4)ccc3C2=O)C(=O)N1 (stereo not shown) [GT-05780, 3-(5-((4-((5-(furan-2-yl)thiophen-2-yl)methyl)piperazin-1-yl)methyl)-1-oxoisoindolin-2-yl)piperidine-2,6-dione]
IC50 [1]: 5 to 10 nM | residual substrate protein level, GSPT1 [2]: A (A represents a residual substrate protein level of <50%) | residual substrate protein level, IKZF3 [3]: A (A represents a residual substrate protein level of <50%) | IC50 [4]: 230 nM | IC50 [5]: 500 to 1000 nM | residual substrate protein level, IKZF1 [6]: A (A represents a residual substrate protein level of <50%) | IC50 [7]: 100 to 500 nM

Structure (SMILES): O=C1CCC(N2Cc3c(ccc(CN4CCN(CC5=C(c6ccc(F)cc6)CCCC5)CC4)c3F)C2=O)C(=O)N1 (stereo not shown) [GT-05466, 3-(4-fluoro-5-((4-((4′-fluoro-3,4,5,6-tetrahydro-[1,1′-biphenyl]-2-yl)methyl)piperazin-1-yl)methyl)-1-oxoisoindolin-2-yl)piperidine-2,6-dione]
IC50 [1]: 10 to 50 nM | residual substrate protein level, GSPT1 [2]: A (A represents a residual substrate protein level of <50%) | residual substrate protein level, IKZF3 [3]: A (A represents a residual substrate protein level of <50%) | IC50 [4]: 700 nM | IC50 [5]: 10 to 50 nM | residual substrate protein level, IKZF1 [6]: A (A represents a residual substrate protein level of <50%) | IC50 [7]: 50 to 100 nM

Structure (SMILES): CC1(C)CC(c2ccc(Cl)cc2)=C(CN2CCN(Cc3ccc4c(c3)CN(C3CCC(=O)NC3=O)C4=O)CC2)CO1 (stereo not shown) [GT-05672, 3-(5-((4-((4-(4-chlorophenyl)-6,6-dimethyl-5,6-dihydro-2H-pyran-3-yl)methyl)piperazin-1-yl)methyl)-1-oxoisoindolin-2-yl)piperidine-2,6-dione]
IC50 [1]: 10 to 50 nM | residual substrate protein level, GSPT1 [2]: A (A represents a residual substrate protein level of <50%) | residual substrate protein level, IKZF3 [3]: A (A represents a residual substrate protein level of <50%) | IC50 [4]: 580 nM | IC50 [5]: 10 to 50 nM | residual substrate protein level, IKZF1 [6]: A (A represents a residual substrate protein level of <50%) | IC50 [7]: 500 to 1000 nM

Structure (SMILES): O=C1CCC(N2Cc3cc(CN4CCN(Cc5ccc(-c6cccs6)s5)CC4)ccc3C2=O)C(=O)N1 (stereo not shown) [GT-05624, 3-(5-((4-([2,2′-bithiophen]-5-ylmethyl)piperazin-1-yl)methyl)-1-oxoisoindolin-2-yl)piperidine-2,6-dione]
IC50 [1]: 10 to 50 nM | residual substrate protein level, GSPT1 [2]: B (B represents a residual substrate protein level of >50%) | residual substrate protein level, IKZF3 [3]: A (A represents a residual substrate protein level of <50%) | IC50 [4]: 470 nM | IC50 [5]: 100 to 500 nM | residual substrate protein level, IKZF1 [6]: A (A represents a residual substrate protein level of <50%) | IC50 [7]: 500 to 1000 nM

Structure (SMILES): CC1(C)CCC(C(=O)N2CC3(CN(Cc4ccc5c(c4)CN(C4CCC(=O)NC4=O)C5=O)C3)C2)=C(c2ccc(Cl)cc2)C1 (stereo not shown) [GT-05681, 3-(5-((6-(4′-chloro-5,5-dimethyl-3,4,5,6-tetrahydro-[1,1′-biphenyl]-2-carbonyl)-2,6-diazaspiro[3.3]heptan-2-yl)methyl)-1-oxoisoindolin-2-yl)piperidine-2,6-dione]
IC50 [8]: 100 to 500 nM | IC50 [1]: 100 to 500 nM | residual substrate protein level, GSPT1 [2]: A (A represents a residual substrate protein level of <50%) | residual substrate protein level, IKZF3 [3]: A (A represents a residual substrate protein level of <50%) | IC50 [4]: 460 nM | IC50 [5]: 50 to 100 nM | residual substrate protein level, IKZF1 [6]: B (B represents a residual substrate protein level of >50%)
